# Source: paper PMC7613998, “Development of selective inhibitors of phosphatidylinositol 3-kinase C2α” (Nature Chemical Biology, 2022)
# Experiments:
# Assay in all cases: biochemical
# DYRK1B = DYRK1B (Homo sapiens, UniProt Q9Y463); parameters: SelectScreen Z'-LYTE purified kinase panel, per cent inhibition, mean of two points; conditions: (μM)=Km app
# FRAP1 (mTOR) = FRAP1 (mTOR) (Homo sapiens, UniProt P42345); parameters: SelectScreen Z'-LYTE mTOR kinase assay, 1 uM compound, 10 uM ATP, per cent inhibition; conditions: ATP=10; Technology=ZLYTE; 10 uM ATP
# Experimental: (§1) As PI3KC2α is related to other PI3Ks and to PI3K-like protein kinases such as mTOR, the selectivity of PITCOINs was determined in a panel of biochemical assays. […] Finally, the high specificity of PITCOINs for PI3KC2α was verified by Kinobead profiling experiments. In this approach, the ability of PITCOINs to compete the affinity capture of cellular kinases on immobilized nonselective kinase inhibitors (Kinobeads) is analyzed by mass spectrometry (MS)[31]. […] Four nonkinase weak off-targets were globally found for the three inhibitors with only FECH[32] common to the three PITCOINs (Supplementary Dataset).  Extended Data Fig. 2 Lipid kinase inhibitor profile of PITCOIN1-3. (a–c) Selectivity profiling of PITCOIN1-3 (1 µM) with purified lipid kinases in the presence of 10 µM ATP. […] Data are presented as mean ± SD from two independent experiments. (d, e) IC50 measurements of PITCOIN1-3 against purified recombinant class I PI3K p110α/p85α (d) or purified class III PI3K VPS34 complex II (e). 10 µM ATP and 20 µM PIP3 (for p110α/p85α) or 200 µM PI (for VPS34 complex II) were used as substrates. […] Data are presented as mean ± SD from two independent experiments. Source data
# KIT = KIT (Homo sapiens, UniProt P10721); parameters: SelectScreen Z'-LYTE purified kinase panel, per cent inhibition, mean of two points; conditions: (μM)=Km app
# ERBB2 (HER2) = ERBB2 (HER2) (Homo sapiens, UniProt P04626); parameters: SelectScreen Z'-LYTE purified kinase panel, per cent inhibition, mean of two points; conditions: (μM)=Km app
# ERBB2 (HER2), sequence (P04626 whole entry): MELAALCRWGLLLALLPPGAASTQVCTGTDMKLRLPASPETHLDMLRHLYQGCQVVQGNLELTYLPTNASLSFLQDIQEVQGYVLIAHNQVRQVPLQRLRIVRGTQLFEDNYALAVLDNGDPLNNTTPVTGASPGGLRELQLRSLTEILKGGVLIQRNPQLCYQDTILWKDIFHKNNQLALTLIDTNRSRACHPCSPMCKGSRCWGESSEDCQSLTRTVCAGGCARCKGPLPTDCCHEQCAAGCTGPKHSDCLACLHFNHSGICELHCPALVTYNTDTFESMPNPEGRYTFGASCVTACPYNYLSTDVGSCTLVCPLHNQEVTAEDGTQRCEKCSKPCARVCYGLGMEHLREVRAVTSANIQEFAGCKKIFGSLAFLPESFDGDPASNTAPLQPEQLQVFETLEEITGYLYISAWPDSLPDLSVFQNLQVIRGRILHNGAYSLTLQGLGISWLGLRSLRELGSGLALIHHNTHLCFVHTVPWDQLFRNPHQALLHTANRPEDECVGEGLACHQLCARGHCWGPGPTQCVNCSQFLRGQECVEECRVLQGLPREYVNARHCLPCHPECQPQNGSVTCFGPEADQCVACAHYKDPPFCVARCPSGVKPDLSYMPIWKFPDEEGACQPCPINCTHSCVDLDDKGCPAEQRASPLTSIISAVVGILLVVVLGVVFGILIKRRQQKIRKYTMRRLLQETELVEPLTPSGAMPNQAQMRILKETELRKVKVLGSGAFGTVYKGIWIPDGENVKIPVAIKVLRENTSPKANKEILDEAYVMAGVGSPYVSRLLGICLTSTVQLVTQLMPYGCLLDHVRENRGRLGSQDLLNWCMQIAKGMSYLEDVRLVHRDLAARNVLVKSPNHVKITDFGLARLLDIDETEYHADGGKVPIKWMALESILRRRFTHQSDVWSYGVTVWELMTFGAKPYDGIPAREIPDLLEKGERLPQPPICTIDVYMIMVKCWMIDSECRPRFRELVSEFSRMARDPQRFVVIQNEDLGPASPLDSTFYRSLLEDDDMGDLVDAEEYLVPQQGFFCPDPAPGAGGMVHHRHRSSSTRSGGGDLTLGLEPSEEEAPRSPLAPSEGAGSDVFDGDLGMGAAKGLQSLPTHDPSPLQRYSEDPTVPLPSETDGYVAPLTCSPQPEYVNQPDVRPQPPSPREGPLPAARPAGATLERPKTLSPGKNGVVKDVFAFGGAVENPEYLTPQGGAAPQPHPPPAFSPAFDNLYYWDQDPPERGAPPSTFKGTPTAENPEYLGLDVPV
# JAK1 = JAK1 (Homo sapiens, UniProt P23458); parameters: SelectScreen Z'-LYTE purified kinase panel, per cent inhibition, mean of two points; conditions: (μM)=Km app
# PLK3 = PLK3 (Homo sapiens, UniProt Q9H4B4); parameters: SelectScreen Z'-LYTE purified kinase panel, per cent inhibition, mean of two points; conditions: (μM)=Km app
# TYK2 = TYK2 (Homo sapiens, UniProt P29597); parameters: SelectScreen Z'-LYTE purified kinase panel, per cent inhibition, mean of two points; conditions: (μM)=Km app
# [1] = target: PIK3CA E542K/PIK3R1 (p110 alpha E542K/p85 alpha) (Homo sapiens, UniProt P42336, E542K); parameters: SelectScreen Adapta purified lipid kinase panel, 1 uM compound, 10 uM ATP, per cent inhibition; conditions: ATP=10; Technology=Adapta; 10 uM ATP
# PIK3CA E542K/PIK3R1 (p110 alpha E542K/p85 alpha), sequence (P42336 whole entry E542K): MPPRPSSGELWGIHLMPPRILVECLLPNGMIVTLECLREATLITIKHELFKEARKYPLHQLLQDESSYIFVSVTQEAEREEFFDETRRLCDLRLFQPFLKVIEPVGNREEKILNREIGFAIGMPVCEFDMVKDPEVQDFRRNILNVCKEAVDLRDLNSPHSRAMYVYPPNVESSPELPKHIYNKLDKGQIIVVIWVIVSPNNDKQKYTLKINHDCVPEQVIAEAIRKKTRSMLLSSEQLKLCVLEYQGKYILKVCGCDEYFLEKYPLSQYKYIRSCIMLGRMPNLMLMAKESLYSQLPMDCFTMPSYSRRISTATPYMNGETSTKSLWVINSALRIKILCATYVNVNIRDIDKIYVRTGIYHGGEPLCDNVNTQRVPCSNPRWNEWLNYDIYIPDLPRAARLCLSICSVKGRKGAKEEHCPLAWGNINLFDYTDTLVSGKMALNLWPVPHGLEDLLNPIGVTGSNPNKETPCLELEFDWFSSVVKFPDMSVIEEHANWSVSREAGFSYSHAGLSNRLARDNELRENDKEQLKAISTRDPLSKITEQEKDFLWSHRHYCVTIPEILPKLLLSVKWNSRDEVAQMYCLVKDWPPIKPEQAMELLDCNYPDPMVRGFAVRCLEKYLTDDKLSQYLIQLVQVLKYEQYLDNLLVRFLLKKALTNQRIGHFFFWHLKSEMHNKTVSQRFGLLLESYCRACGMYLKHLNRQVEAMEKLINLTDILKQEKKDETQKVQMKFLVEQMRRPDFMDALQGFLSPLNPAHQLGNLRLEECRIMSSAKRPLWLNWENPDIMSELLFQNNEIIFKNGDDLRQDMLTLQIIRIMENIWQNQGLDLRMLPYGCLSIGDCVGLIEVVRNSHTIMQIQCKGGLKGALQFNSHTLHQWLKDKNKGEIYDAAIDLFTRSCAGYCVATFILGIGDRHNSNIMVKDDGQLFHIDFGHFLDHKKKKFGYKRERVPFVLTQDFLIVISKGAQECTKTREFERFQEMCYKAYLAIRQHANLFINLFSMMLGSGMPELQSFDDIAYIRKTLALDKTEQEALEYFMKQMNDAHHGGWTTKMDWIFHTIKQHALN
# PIK3CA E542K/PIK3R1 (p110 alpha E542K/p85 alpha), sequence (P27986 whole entry partner): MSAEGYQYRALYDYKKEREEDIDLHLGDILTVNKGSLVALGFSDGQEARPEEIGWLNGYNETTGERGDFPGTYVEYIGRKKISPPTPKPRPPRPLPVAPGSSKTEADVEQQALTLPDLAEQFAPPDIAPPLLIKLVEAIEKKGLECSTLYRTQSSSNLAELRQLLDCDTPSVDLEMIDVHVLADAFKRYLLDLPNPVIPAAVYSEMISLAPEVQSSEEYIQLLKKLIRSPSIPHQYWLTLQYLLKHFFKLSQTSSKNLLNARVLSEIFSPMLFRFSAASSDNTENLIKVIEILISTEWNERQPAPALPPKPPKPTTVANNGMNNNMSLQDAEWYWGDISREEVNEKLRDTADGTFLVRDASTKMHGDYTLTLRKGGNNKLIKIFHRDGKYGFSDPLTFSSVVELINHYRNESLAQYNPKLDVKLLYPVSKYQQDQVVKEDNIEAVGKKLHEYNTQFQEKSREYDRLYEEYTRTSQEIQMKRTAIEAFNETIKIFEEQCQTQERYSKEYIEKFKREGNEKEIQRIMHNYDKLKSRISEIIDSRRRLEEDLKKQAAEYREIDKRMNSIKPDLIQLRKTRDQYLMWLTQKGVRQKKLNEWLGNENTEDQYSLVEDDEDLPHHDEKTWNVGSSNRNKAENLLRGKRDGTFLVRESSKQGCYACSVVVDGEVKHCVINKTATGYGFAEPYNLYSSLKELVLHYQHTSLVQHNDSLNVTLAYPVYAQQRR
# Experimental: as §1
# PI4K2A (PI4K2 alpha) = PI4K2A (PI4K2 alpha) (Homo sapiens, UniProt Q9BTU6); parameters: SelectScreen Adapta purified lipid kinase panel, 1 uM compound, 10 uM ATP, per cent inhibition; conditions: ATP=10; Technology=Adapta; 10 uM ATP
# Experimental: as §1
# [2] = target: PIK3CA/PIK3R1 (p110 alpha/p85 alpha) (Homo sapiens, UniProt P42336); parameters: SelectScreen Adapta purified lipid kinase panel, 1 uM compound, 10 uM ATP, per cent inhibition; conditions: ATP=10; Technology=Adapta; 10 uM ATP
# PIK3CA/PIK3R1 (p110 alpha/p85 alpha), sequence (P42336 whole entry): as the sequence (P42336 whole entry E542K) above, with K542E counted along it
# PIK3CA/PIK3R1 (p110 alpha/p85 alpha), sequence (P27986 whole entry partner): as the sequence (P27986 whole entry partner) above
# Experimental: as §1
# PIK3C2A (PI3K-C2 alpha) = PIK3C2A (PI3K-C2 alpha) (Homo sapiens, UniProt O00443); parameters: SelectScreen Adapta purified lipid kinase panel, 1 uM compound, 10 uM ATP, per cent inhibition; conditions: ATP=10; Technology=Adapta; 10 uM ATP; 1 µM; inhibitor
# PIK3C2A (PI3K-C2 alpha), sequence (O00443 whole entry): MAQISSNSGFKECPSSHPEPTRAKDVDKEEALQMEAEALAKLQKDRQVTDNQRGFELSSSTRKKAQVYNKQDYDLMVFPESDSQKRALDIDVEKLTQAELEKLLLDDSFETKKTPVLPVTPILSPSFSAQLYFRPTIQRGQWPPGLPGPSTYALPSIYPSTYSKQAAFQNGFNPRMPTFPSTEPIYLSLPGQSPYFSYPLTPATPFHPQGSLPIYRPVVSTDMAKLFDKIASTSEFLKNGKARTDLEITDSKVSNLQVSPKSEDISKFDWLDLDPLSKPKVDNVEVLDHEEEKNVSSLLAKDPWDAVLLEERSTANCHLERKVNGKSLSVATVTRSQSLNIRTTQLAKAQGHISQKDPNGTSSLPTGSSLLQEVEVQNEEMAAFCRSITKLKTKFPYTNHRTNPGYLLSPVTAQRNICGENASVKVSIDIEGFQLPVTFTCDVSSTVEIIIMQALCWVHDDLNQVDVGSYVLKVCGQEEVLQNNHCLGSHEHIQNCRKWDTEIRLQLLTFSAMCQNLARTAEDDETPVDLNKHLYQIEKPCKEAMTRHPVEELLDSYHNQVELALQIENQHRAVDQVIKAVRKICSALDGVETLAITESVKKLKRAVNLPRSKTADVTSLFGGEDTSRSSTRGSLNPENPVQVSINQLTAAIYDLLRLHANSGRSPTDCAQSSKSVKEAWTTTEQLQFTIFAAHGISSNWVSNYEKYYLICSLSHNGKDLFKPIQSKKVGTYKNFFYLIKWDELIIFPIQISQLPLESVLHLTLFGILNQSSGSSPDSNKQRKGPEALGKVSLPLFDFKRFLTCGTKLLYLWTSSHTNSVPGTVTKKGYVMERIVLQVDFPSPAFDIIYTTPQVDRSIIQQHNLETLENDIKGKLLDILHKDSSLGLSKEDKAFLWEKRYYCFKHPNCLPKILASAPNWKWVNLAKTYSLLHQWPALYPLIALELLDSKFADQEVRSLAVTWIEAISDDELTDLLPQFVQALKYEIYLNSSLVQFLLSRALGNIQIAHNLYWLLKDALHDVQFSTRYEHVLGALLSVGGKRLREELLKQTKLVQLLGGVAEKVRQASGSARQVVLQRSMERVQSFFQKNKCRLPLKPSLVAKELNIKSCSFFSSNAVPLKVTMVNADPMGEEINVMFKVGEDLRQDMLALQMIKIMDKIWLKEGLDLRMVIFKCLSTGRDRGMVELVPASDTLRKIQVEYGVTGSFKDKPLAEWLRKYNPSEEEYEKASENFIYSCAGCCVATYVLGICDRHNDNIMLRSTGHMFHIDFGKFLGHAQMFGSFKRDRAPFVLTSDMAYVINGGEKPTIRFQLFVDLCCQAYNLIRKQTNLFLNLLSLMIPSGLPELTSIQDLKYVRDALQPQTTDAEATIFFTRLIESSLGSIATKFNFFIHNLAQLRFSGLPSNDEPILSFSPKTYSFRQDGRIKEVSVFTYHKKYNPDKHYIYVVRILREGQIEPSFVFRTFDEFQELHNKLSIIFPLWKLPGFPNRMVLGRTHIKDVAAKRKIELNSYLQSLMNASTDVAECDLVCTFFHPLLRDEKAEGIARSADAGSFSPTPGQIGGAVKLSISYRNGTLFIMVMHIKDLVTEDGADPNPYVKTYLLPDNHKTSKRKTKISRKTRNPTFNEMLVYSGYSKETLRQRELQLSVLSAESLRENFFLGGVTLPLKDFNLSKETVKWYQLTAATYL
# Experimental: as §1
# SPHK2 = target: T1, SPHK2 (Homo sapiens, UniProt Q9NRA0); parameters: SelectScreen Adapta purified lipid kinase panel, 1 uM compound, 10 uM ATP, per cent inhibition; conditions: ATP=10; Technology=Adapta; 10 uM ATP
# T1 sequence (Q9NRA0 1-654): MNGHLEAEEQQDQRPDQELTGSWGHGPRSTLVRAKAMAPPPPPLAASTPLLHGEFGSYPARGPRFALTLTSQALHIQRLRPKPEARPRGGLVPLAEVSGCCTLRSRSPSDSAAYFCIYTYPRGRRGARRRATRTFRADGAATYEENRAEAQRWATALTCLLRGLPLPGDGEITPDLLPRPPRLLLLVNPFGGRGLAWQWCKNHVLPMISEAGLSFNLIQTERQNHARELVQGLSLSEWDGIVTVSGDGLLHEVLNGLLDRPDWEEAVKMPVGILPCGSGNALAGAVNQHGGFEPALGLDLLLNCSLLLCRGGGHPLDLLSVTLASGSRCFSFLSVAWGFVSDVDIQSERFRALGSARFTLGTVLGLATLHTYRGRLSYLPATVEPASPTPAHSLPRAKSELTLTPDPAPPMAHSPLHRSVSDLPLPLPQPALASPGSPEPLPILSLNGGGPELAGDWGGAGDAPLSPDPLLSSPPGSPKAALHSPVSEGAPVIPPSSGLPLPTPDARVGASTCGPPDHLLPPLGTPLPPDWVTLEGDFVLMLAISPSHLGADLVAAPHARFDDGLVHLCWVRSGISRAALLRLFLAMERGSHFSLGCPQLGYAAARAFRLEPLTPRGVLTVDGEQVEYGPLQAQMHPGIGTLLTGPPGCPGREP
# Experimental: as §1
# [3] = target: PIK3CA E545K/PIK3R1 (p110 alpha E545K/p85 alpha) (Homo sapiens, UniProt P42336, E545K); parameters: SelectScreen Adapta purified lipid kinase panel, 1 uM compound, 10 uM ATP, per cent inhibition; conditions: ATP=10; Technology=Adapta; 10 uM ATP
# PIK3CA E545K/PIK3R1 (p110 alpha E545K/p85 alpha), sequence (P42336 whole entry E545K): as the sequence (P42336 whole entry E542K) above, with K542E, E545K counted along it
# PIK3CA E545K/PIK3R1 (p110 alpha E545K/p85 alpha), sequence (P27986 whole entry partner): as the sequence (P27986 whole entry partner) above
# Experimental: as §1
Structure (SMILES),inhibition at 1 µM (DYRK1B),inhibition at 3 µM (DYRK1B),inhibition at 10 µM (DYRK1B),inhibition at 1 µM (FRAP1 (mTOR)),inhibition at 1 µM (KIT),inhibition at 3 µM (KIT),inhibition at 10 µM (KIT),inhibition at 1 µM (ERBB2 (HER2)),inhibition at 3 µM (ERBB2 (HER2)),inhibition at 10 µM (ERBB2 (HER2)),inhibition at 1 µM (JAK1),inhibition at 3 µM (JAK1),inhibition at 10 µM (JAK1),inhibition at 1 µM (PLK3),inhibition at 1 µM [1],inhibition at 1 µM (PI4K2A (PI4K2 alpha)),inhibition at 1 µM [2],% Inhibition Avg (PIK3C2A (PI3K-C2 alpha)),inhibition at 1 µM (SPHK2),inhibition at 1 µM [3],other results
"O=C(CSc1nc2nccnc2c(=O)n1CCc1ccccc1)Nc1nccs1 [compound 1, PITCOIN1]",-3.1%,-1.26%,-0.107%,8%,-11.3%,5.95%,-5.32%,-9.9%,-2.96%,-11.6%,6.58%,2.72%,0.0941%,3.02%,5%,8%,5%,88%,9%,2%,inhibition at 3 µM (PLK3): 3.24%; inhibition at 10 µM (PLK3): 5.6%; inhibition at 1 µM (TYK2): -4.9%; inhibition at 3 µM (TYK2): -7.09%; inhibition at 10 µM (TYK2): -1.29%
"CS(=O)(=O)Nc1cccc(-c2csc(NC(=O)CSc3nc4nccnc4c(=O)n3CCc3ccccc3)n2)c1 [compound 3, PITCOIN3]",-3%,-3.02%,-2.65%,4%,-9.5%,14.5%,-3.62%,-1.62%,-3.07%,-10.7%,2.76%,4.25%,0.516%,3.58%,14%,1%,17%,83%,-5%,4%,inhibition at 3 µM (PLK3): 4.83%; inhibition at 10 µM (PLK3): 4.26%; inhibition at 1 µM (TYK2): 3.78%; inhibition at 3 µM (TYK2): -2.18%; inhibition at 10 µM (TYK2): 4.5%
"O=C(CSc1nc2nccnc2c(=O)n1CCc1ccccc1)Nc1nc(-c2cccc(O)c2)cs1 [compound 2, PITCOIN2]",–,–,–,5%,–,–,–,–,–,–,–,–,–,–,9%,4%,-1%,87%,-1%,0%,–
